Data taken from patent US20160333006A1, “ARYL LACTA KINASE INHIBITORS” (Bristol-Myers Squibb Company, priority 2014, published 2016).

Columns and labels:
[1] = biological target: T1, GST-Xa-hAAK1 (Homo sapiens, UniProt Q2M2I8); experiment: AAK1 kinase assay; assay type: biochemical; settings: ATP 22 μM; given as IC50 range
T1 construct: made in house
Protocol: The assays were performed in U-bottom 384-well plates. […] The reactions were initiated by the combination of bacterially expressed, GST-Xa-hAAK1 with substrates and test compounds. The reactions were incubated at room temperature for 3 hours and terminated by adding 60 μl of 35 mM EDTA buffer to each sample. The reactions were analyzed on the Caliper LabChip 3000 (Caliper, Hopkinton, Mass.) by electrophoretic separation of the fluorescent substrate and phosphorylated product. […] Compounds were dissolved at 10 mM in dimethylsulfoxide (DMSO) and evaluated at eleven concentrations. IC50 values were derived by non-linear regression analysis.

[2] = biological target: T2, AAK1 (full length human) in HEK293F cells (Homo sapiens, UniProt Q2M2I8); experiment: HEK281 cell-based assay (phospho-mu2 Western blot in transfected HEK293F cells); settings: 3 hours, phospho-mu2, given as IC50 range
T2 construct: fused on or other part: HA tag (AAK1/HA in pIRES vector)
T2 sequence (Q2M2I8 1-822 limits assumed): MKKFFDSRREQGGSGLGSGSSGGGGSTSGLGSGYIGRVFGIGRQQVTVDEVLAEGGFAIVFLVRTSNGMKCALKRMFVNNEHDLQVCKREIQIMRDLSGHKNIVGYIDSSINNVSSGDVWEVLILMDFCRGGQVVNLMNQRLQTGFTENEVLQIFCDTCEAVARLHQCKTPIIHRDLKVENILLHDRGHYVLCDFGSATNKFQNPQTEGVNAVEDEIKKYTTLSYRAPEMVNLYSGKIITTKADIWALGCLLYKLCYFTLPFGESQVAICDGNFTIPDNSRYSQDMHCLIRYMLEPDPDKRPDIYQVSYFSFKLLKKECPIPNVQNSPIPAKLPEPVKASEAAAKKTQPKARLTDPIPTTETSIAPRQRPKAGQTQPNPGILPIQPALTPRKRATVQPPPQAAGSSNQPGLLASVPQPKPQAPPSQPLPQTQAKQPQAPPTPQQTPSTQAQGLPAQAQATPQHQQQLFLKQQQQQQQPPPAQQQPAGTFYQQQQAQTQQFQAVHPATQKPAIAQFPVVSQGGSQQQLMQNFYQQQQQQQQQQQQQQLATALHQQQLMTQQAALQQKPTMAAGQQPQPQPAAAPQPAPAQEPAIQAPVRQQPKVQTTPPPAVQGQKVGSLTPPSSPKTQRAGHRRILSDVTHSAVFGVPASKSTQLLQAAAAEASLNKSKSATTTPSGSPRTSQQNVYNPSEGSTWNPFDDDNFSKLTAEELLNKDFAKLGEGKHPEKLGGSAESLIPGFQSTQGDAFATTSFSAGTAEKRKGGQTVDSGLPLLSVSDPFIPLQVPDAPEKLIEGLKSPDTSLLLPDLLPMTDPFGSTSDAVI
Protocol: On day one, cells were plated on a 10 cm dish so that they are ˜80% confluent at time oftransfection. Roughly 12 million cells were in a 10 cm dish at time of transfection. […] The DNA was comprised of a mixture (per 10 cm dish) containing 3 ug AAK1/HA/pIRES (full length human, NCBI accession no. NP_055726.2), 45 μg Flag/AP2MI/pcDNA (full length human), and 1.5 ml OPTI-MEM. The Lipofectamine 2000 is made up of a mixture (per 10 cm dish) containing 144 μl Lipofectamine 2000 and 1.5 ml OPTI-MEM. Each mixture was transferred to individual 15 ml tubes and incubated at RT for 5 minutes, and then the two mixes were combined and incubated at RT for 20 minutes. Growth media was then aspirated from each 10 cm plate and replaced with 10 ml of DMEM+10% FBS (no GPS). Finally, 3 ml DNA/Lipofectamine mix was added to each 10 cm dish and mix gently followed by incubate of plate overnight at 37° C. and 5% CO2.
On day three, compounds were diluted in 100% DMSO at 1000× final concentration, followed by 3-fold serial dilutions for a total of 5 concentrations tested. Four compounds were tested per 10 cm dish. One ul of each compound dilution was then pipetted into a deep-well, 96-well plate, followed by addition of 500 μl DMEM+0.5% FBS into each well for a 2× final concentration of each compound. Cells were resuspended in a 10 cm dish by simple pipetting (HEK293 cells come off the plate that easy at this point) and then transferred to a 50 ml conical tube and pelleted by centrifugation at 1000 rpm for 5 min. Cell pellets were then resuspended in 2.75 ml DMEM+0.5% FBS per 10 cm dish and 100 μl of cell suspension transferred into each well of 96-well TC plate. Finally, 100 μl of 2× compound diluted in DMEM+0.5% FBS was then added into wells containing cell suspension for a 1× final concentration. Plates were then incubated at 37° C. and 5% CO2 for 3 hours followed by transferring of cell suspensions from each well into 12-tube PCR strips. The PCR strips were spun in a tip rack at 1000 rpm for 5 minutes to pellet cells and media was then removed by pipetting without disturbing the cell pellet.
Five ul of 10× NuPage Sample Reducing Agent (with 50 mM DTT) was to each sample followed by heat denaturing at 70 C for 10 min on PCR machine. […] For controls, 2 ng of phospho-mu2 or 20 ng mu2/Flag proteins were loaded in the last well of each gel. After SDS-PAGE, samples on each gel were transferred to PVDF membrane using an iBlot and membranes were blocked for one hour in TBST+5% milk, followed by wash 3× for 5-10 min with TBST.
Finally, the camera was set up to take a picture every 30 seconds for 10 minutes and the best image saved for each blot with no saturated signal (when the signal is saturated, the bands will be highlighted red). A volume analysis on each band was performed to obtain density values. Percent inhibition was calculated for each sample by first normalizing to total Mu2 expression levels and then comparing to 0% and 100% controls. IC50 values were then calculated using Excel fitting software.

T1 sequence (Q2M2I8 whole entry): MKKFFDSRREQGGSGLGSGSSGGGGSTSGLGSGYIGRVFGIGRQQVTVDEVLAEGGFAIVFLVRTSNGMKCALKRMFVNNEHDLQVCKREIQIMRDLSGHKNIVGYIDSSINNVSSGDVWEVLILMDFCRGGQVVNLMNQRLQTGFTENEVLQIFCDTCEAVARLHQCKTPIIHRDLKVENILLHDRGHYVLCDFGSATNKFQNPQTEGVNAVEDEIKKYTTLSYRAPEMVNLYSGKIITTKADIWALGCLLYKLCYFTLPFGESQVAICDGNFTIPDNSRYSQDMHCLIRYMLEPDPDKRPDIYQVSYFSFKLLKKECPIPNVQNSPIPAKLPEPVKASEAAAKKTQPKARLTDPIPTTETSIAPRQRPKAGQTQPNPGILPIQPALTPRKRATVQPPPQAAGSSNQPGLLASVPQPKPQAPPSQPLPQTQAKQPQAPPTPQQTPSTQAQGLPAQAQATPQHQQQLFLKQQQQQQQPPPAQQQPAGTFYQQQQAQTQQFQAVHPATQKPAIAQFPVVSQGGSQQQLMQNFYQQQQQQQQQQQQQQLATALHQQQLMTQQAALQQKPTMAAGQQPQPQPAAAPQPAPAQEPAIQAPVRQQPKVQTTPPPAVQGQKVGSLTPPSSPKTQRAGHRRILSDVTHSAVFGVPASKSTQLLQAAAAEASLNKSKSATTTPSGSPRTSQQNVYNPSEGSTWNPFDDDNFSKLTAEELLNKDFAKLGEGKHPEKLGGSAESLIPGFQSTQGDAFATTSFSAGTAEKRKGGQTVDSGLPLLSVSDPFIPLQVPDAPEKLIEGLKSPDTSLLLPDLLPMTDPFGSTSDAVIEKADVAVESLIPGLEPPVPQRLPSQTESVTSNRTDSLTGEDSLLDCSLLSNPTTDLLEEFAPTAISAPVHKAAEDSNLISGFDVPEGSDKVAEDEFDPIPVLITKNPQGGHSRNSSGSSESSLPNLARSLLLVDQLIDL

Compound | IC50 [1] [nM] | IC50 [2] [nM]
Cc1nccc2c1c(=O)n(CCO)c1cc(OC[C@@H](N)CC(C)C)c(Br)cc21 [Example 143, (S)-8-((2-amino-4-methylpentyl)oxy)-9-bromo-6-(2-hydroxyethyl)-4-methylbenzo[c][2,7]naphthyridin-5(6H)-one] | 1 to 10 | 1 to 10
Cn1c(=O)c2c(N)nccc2c2ccc(OCC(N)CCC(F)(F)F)cc21 (stereo not drawn) [Example 120, 4-amino-8-((2-amino-5,5,5-trifluropentyl)oxy)-6-methylbenzo[c][2,7]naphthyridin-5(6H)-one] | – | 1 to 10
Cn1c(=O)c2cnccc2c2cc(Cl)c(OCC(N)CCC(F)(F)F)cc21 (stereo not drawn) [Example 115, 8-((2-amino-5,5,5-trifluoropentyl)oxy)-9-chloro-6-methylbenzo[c][2,7]naphthyridin-5(6H)-one] | 1 to 10 | 1 to 10
Cn1c(=O)c2cnccc2c2cc(Br)c(OCC(N)CC(F)(F)F)cc21 (stereo not drawn) [Example 140, 8-(2-amino-4,4,4-trifluorobutoxy)-9-bromo-6-methylbenzo[c][2,7]naphthyridin-5(6H)-one] | 1 to 10 | 10 to 100
CC(C)C[C@H](N)COc1cc2[nH]c(=O)c3cnccc3c2cc1Cl [Example 142, (S)-8-((2-amino-4-methylpentyl)oxy)-9-chlorobenzo[c][2,7]naphthyridin-5(6H)-one] | < 1 | 1 to 10
Cc1nccc2c1c(=O)n(C)c1cc(OC[C@@H](N)CC(C)C)c(-c3ccccn3)cc21 [Example 86, (S)-8-((2-amino-4-methylpentyl)oxy)-4,6-dimethyl-9-(pyridin-2-yl)benzo[c][2,7]naphthyridin-5(6H)-one] | 10 to 100 | 10 to 100
CC(C)C[C@H](N)COc1cc2[nH]c(=O)c3cnccc3c2cc1Br [Example 108, (S)-8-((2-amino-4-methylpentyl)oxy)-9-bromobenzo[c][2,7]naphthyridin-5(6H)-one] | 1 to 10 | 1 to 10
CC(C)C[C@H](N)COc1cc2c(cc1C(F)F)c1ccncc1c(=O)n2C [Example 121, (S)-8-((2-amino-4-methylpentyl)oxy)-9-(difluoromethyl)-6-methylbenzo[c][2,7]naphthyridin-5(6H)-one] | 1 to 10 | 1 to 10
CNC(=O)Nc1nccc2c1c(=O)n(C)c1cc(OC[C@@H](N)CC(C)C)c(F)cc21 [Example 145, (S)-1-(8-((2-amino-4-methylpentyl)oxy)-9-fluoro-6-methyl-5-oxo-5,6-dihydrobenzo[c][2,7]naphthyridin-4-yl)-3-methylurea] | 10 to 100 | 10 to 100
CC(C)NCC(O)COc1cc2c(cc1Br)c1ccncc1c(=O)n2C (stereo not drawn) [Example 148, 9-bromo-8-(2-hydroxy-3-(isopropylamino)propoxy)-6-methylbenzo[c][2,7]naphthyridin-5(6H)-one] | 100 to 2000 | 100 to 2000
Cc1nccc2c1c(=O)n(C)c1cc(OCC(N)CC(F)(F)F)c(Br)cc21 (single isomer, unassigned) [Example 138, 8-(2-amino-4,4,4-trifluorobutoxy)-9-bromo-4,6-dimethylbenzo[c][2,7]naphthyridin-5(6H)-one] | 1 to 10 | 10 to 100
Cn1c(=O)c2cnccc2c2ccc(OCC(N)CC(F)(F)F)cc21 (single isomer, unassigned) [Example 135, 8-(2-amino-4,4,4-trifluorobutoxy)-6-methylbenzo[c][2,7]naphthyridin-5(6H)-one] | 10 to 100 | –

Continued, values first:

IC50 [1] [nM] | IC50 [2] [nM] | Compound
1 to 10 | 1 to 10 | Cn1c(=O)c2cnccc2c2cc(Cl)c(OCC(N)CCC(F)(F)F)cc21 (stereo not drawn) [Example 117, 8-((2-amino-5,5,5-trifluoropentyl)oxy)-9-chloro-6-methylbenzo[c][2,7]naphthyridin-5(6H)-one]
– | 1 to 10 | Cn1c(=O)c2c(N)nccc2c2ccc(OCC(N)CCC(F)(F)F)cc21 (stereo not drawn) [Example 119, 4-amino-8-((2-amino-5,5,5-trifluoropentyl)oxy)-6-methylbenzo[c][2,7]naphthyridin-5(6H)-one]
1 to 10 | 1 to 10 | Cn1c(=O)c2cnccc2c2cc(Br)c(OCC(N)CCC(F)(F)F)cc21 (stereo not drawn) [Example 113, 8-((2-amino-5,5,5-trifluoropentyl)oxy)-9-bromo-6-methylbenzo[c][2,7]naphthyridin-5(6H)-one]
1 to 10 | 1 to 10 | Cc1cc2c(cc1OC[C@@H](N)CC(C)C)[nH]c(=O)c1cnccc12 [Example 109, (S)-8-((2-amino-4-methylpentyl)oxy)-9-methylbenzo[c][2,7]naphthyridin-5(6H)-one]
100 to 2000 | – | COc1cncc2c(=O)n(C)c3cc(OC[C@@H](N)CC(C)C)ccc3c12 [Example 98, (S)-8-((2-amino-4-methylpentyl)oxy)-1-methoxy-6-methylbenzo[c][2,7]naphthyridin-5(6H)-one]
10 to 100 | 10 to 100 | Cn1c(=O)c2cnccc2c2cc(Cl)c(OCC(N)CCC(F)(F)F)cc21 (stereo not drawn) [Example 116, 8-((2-amino-5,5,5-trifluoropentyl)oxy)-9-chloro-6-methylbenzo[c][2,7]naphthyridin-5(6H)-one]
10 to 100 | – | COCCn1c(=O)c2c(C)nccc2c2cc(Br)c(OC[C@@H](N)CC(C)C)cc21 [Example 131, (S)-8-((2-amino-4-methylpentyl)oxy)-9-bromo-6-(2-methoxyethyl)-4-methylbenzo[c][2,7]naphthyridin-5(6H)-one]
100 to 2000 | – | COc1c(OC[C@@H](N)CC(C)C)ccc2c1[nH]c(=O)c1c(C)nccc12 [Example 99, (S)-8-(2-amino-4-methylpentyloxy)-7-methoxy-4-methylbenzo[c][2,7]naphthyridin-5(6H)-one]
1 to 10 | 10 to 100 | Cn1c(=O)c2cnccc2c2cc(-c3cnco3)c(OCC(N)CCC(F)(F)F)cc21 (stereo not drawn) [Example 114, 8-((2-amino-5,5,5-trifluoropentyl)oxy)-6-methyl-9-(oxazol-5-yl)benzo[c][2,7]naphthyridin-5(6H)-one]
10 to 100 | – | Cc1nccc2c1c(=O)n(C)c1cc(OCCCC(C)C)ccc21 [Example 156, 4,6-dimethyl-8-((4-methylpentyl)oxy)benzo[c][2,7]naphthyridin-5(6H)-one]
100 to 2000 | – | COc1ccc2c3ccnc(C)c3c(=O)n(C)c2c1 [Example 144, 8-methoxy-4,6-dimethylbenzo[c][2,7]naphthyridin-5(6H)-one]
1 to 10 | – | Cc1cc2c3ccncc3c(=O)n(C)c2cc1OC[C@@H](N)CC(C)C [Example 4, (S)-8-((2-amino-4-methylpentyl)oxy)-6,9-dimethylbenzo[c][2,7]naphthyridin-5(6H)-one]
10 to 100 | – | Cc1nccc2c1c(=O)n(C)c1c(F)c(OC[C@@H](N)CC(C)C)c(Br)cc21 [Example 134, (S)-8-((2-amino-4-methylpentyl)oxy)-9-bromo-7-fluoro-4,6-dimethylbenzo[c][2,7]naphthyridin-5(6H)-one]
10 to 100 | – | CC(C)Cc1cc2c3ccncc3c(=O)n(C)c2cc1OC[C@@H](N)CC(C)C [Example 110, (S)-8-((2-amino-4-methylpentyl)oxy)-9-isobutyl-6-methylbenzo[c][2,7]naphthyridin-5(6H)-one]
< 1 | – | Cc1nccc2c1c(=O)n(C)c1cc(OC[C@@H](N)CC(C)C)c(C(F)F)cc21 [Example 27, (S)-8-((2-amino-4-methylpentyl)oxy)-9-(difluoromethyl)-4,6-dimethylbenzo[c][2,7]naphthyridin-5(6H)-one]
